# How the values were obtained:
# Experiment in all cases: relative viability (nuclei count vs DMSO), 5 days (fraction); higher = more cells survive
# CAL-12T = test system: CAL-12T
# Outline: (§1)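 Lung cancer cell lines were pin-tool dosed in 1536-well plates on the day after seeding, with either a lone drug or a fixed anchor-drug dose plus five library-drug doses (not always all listed) in √10 steps. Nuclei were counted on 4× images after 5 days. Relative viability is the ratio of treated-well to vehicle-well nuclei counts, with each value a median of duplicate plates.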
# COR-L 105 = test system: COR-L 105
# Outline: as §1
# EMC-BAC-2 = test system: EMC-BAC-2
# Outline: as §1
# H3255 = test system: H3255
# Outline: as §1
# LC-2-ad = test system: LC-2-ad
# Outline: as §1
# LK-2 = test system: LK-2
# Outline: as §1
# NCI-H1395 = test system: NCI-H1395
# Outline: as §1
# NCI-H1437 = test system: NCI-H1437
# Outline: as §1
# NCI-H1651 = test system: NCI-H1651
# Outline: as §1
# NCI-H1755 = test system: NCI-H1755
# Outline: as §1
# NCI-H1793 = test system: NCI-H1793
# Outline: as §1
# NCI-H1915 = test system: NCI-H1915
# Outline: as §1
# NCI-H1944 = test system: NCI-H1944
# Outline: as §1
# NCI-H2085 = test system: NCI-H2085
# Outline: as §1
# NCI-H2087 = test system: NCI-H2087
# Outline: as §1
# NCI-H2228 = test system: NCI-H2228
# Outline: as §1
# NCI-H2342 = test system: NCI-H2342
# Outline: as §1
# NCI-H2347 = test system: NCI-H2347
# Outline: as §1
# NCI-H661 = test system: NCI-H661
# Outline: as §1
# PC-3 [JPC-3] = test system: PC-3 [JPC-3]
# Outline: as §1
# SK-LU-1 = test system: SK-LU-1
# Outline: as §1
structure (smiles),measurement,setting,value
COCC1(CO)C(=O)C2CCN1CC2 (stereo not given) [PRIMA-1MET] + COc1cc2c(Oc3ccc(NC(=O)C4(C(=O)Nc5ccc(F)cc5)CC4)cc3F)ccnc2cc1OCCCN1CCOCC1 [Foretinib] (partner 0.25 µM),relative viability,CAL-12T; first compound 0.2 µM,1.33
same,relative viability,CAL-12T; first compound 0.6325 µM,1.23
same,relative viability,CAL-12T; first compound 2 µM,1
same,relative viability,CAL-12T; first compound 6.325 µM,1.16
same,relative viability,CAL-12T; first compound 20 µM,0.939
same,relative viability,COR-L 105; first compound 0.2 µM,1.48
same,relative viability,COR-L 105; first compound 0.6325 µM,1.02
same,relative viability,COR-L 105; first compound 2 µM,1.17
same,relative viability,COR-L 105; first compound 6.325 µM,1.2
same,relative viability,COR-L 105; first compound 20 µM,0.551
same,relative viability,EMC-BAC-2; first compound 0.2 µM,1.17
same,relative viability,EMC-BAC-2; first compound 0.6325 µM,1.01
same,relative viability,EMC-BAC-2; first compound 6.325 µM,1.04
same,relative viability,EMC-BAC-2; first compound 20 µM,1.03
same,relative viability,H3255; first compound 0.2 µM,0.822
same,relative viability,H3255; first compound 0.6325 µM,0.947
same,relative viability,H3255; first compound 2 µM,0.807
same,relative viability,H3255; first compound 6.325 µM,1.05
same,relative viability,H3255; first compound 20 µM,0.924
same,relative viability,LC-2-ad; first compound 0.2 µM,0.987
same,relative viability,LC-2-ad; first compound 2 µM,0.843
same,relative viability,LC-2-ad; first compound 6.325 µM,0.887
same,relative viability,LC-2-ad; first compound 20 µM,0.966
same,relative viability,LK-2; first compound 0.2 µM,1.4
same,relative viability,LK-2; first compound 0.6325 µM,1.16
same,relative viability,LK-2; first compound 2 µM,0.567
same,relative viability,LK-2; first compound 6.325 µM,0.752
same,relative viability,LK-2; first compound 20 µM,0.147
same,relative viability,NCI-H1395; first compound 0.2 µM,1.03
same,relative viability,NCI-H1395; first compound 0.6325 µM,0.652
same,relative viability,NCI-H1395; first compound 2 µM,1.05
same,relative viability,NCI-H1395; first compound 6.325 µM,1
same,relative viability,NCI-H1395; first compound 20 µM,0.971
same,relative viability,NCI-H1437; first compound 0.2 µM,1.32
same,relative viability,NCI-H1437; first compound 0.6325 µM,1.21
same,relative viability,NCI-H1437; first compound 2 µM,1.24
same,relative viability,NCI-H1437; first compound 6.325 µM,1.21
same,relative viability,NCI-H1437; first compound 20 µM,1.17
same,relative viability,NCI-H1651; first compound 0.2 µM,0.87
same,relative viability,NCI-H1651; first compound 0.6325 µM,0.578
same,relative viability,NCI-H1651; first compound 2 µM,0.77
same,relative viability,NCI-H1651; first compound 6.325 µM,0.933
same,relative viability,NCI-H1651; first compound 20 µM,0.827
same,relative viability,NCI-H1755; first compound 0.2 µM,1.02
same,relative viability,NCI-H1755; first compound 0.6325 µM,0.932
same,relative viability,NCI-H1755; first compound 2 µM,0.809
same,relative viability,NCI-H1755; first compound 6.325 µM,0.907
same,relative viability,NCI-H1755; first compound 20 µM,0.867
same,relative viability,NCI-H1793; first compound 0.2 µM,0.858
same,relative viability,NCI-H1793; first compound 0.6325 µM,0.563
same,relative viability,NCI-H1793; first compound 6.325 µM,0.846
same,relative viability,NCI-H1793; first compound 20 µM,0.491
same,relative viability,NCI-H1915; first compound 0.2 µM,1.12
same,relative viability,NCI-H1915; first compound 0.6325 µM,0.958
same,relative viability,NCI-H1915; first compound 6.325 µM,1.08
same,relative viability,NCI-H1915; first compound 20 µM,1.05
same,relative viability,NCI-H1944; first compound 0.2 µM,1.02
same,relative viability,NCI-H1944; first compound 0.6325 µM,0.789
same,relative viability,NCI-H1944; first compound 2 µM,0.837
same,relative viability,NCI-H1944; first compound 6.325 µM,0.881
same,relative viability,NCI-H1944; first compound 20 µM,0.861
same,relative viability,NCI-H2085; first compound 0.2 µM,1.01
same,relative viability,NCI-H2085; first compound 0.6325 µM,1.01
same,relative viability,NCI-H2085; first compound 2 µM,0.772
same,relative viability,NCI-H2085; first compound 6.325 µM,0.53
same,relative viability,NCI-H2085; first compound 20 µM,0.122
same,relative viability,NCI-H2087; first compound 0.2 µM,1.29
same,relative viability,NCI-H2087; first compound 0.6325 µM,1.17
same,relative viability,NCI-H2087; first compound 2 µM,0.932
same,relative viability,NCI-H2087; first compound 6.325 µM,1.02
same,relative viability,NCI-H2087; first compound 20 µM,0.632
same,relative viability,NCI-H2228; first compound 0.2 µM,0.973
same,relative viability,NCI-H2228; first compound 0.6325 µM,0.938
same,relative viability,NCI-H2228; first compound 2 µM,0.87
same,relative viability,NCI-H2228; first compound 6.325 µM,0.952
same,relative viability,NCI-H2228; first compound 20 µM,0.0309
same,relative viability,NCI-H2342; first compound 0.2 µM,1.06
same,relative viability,NCI-H2342; first compound 0.6325 µM,0.986
same,relative viability,NCI-H2342; first compound 2 µM,0.887
same,relative viability,NCI-H2342; first compound 6.325 µM,1.01
same,relative viability,NCI-H2342; first compound 20 µM,0.99
same,relative viability,NCI-H2347; first compound 0.2 µM,0.876
same,relative viability,NCI-H2347; first compound 0.6325 µM,0.724
same,relative viability,NCI-H2347; first compound 6.325 µM,1.1
same,relative viability,NCI-H2347; first compound 20 µM,0.814
same,relative viability,NCI-H661; first compound 0.2 µM,1.07
same,relative viability,NCI-H661; first compound 0.6325 µM,1
same,relative viability,NCI-H661; first compound 2 µM,0.975
same,relative viability,NCI-H661; first compound 6.325 µM,0.988
same,relative viability,NCI-H661; first compound 20 µM,0.979
same,relative viability,PC-3 [JPC-3]; first compound 0.2 µM,1.12
same,relative viability,PC-3 [JPC-3]; first compound 0.6325 µM,0.942
same,relative viability,PC-3 [JPC-3]; first compound 2 µM,1.05
same,relative viability,PC-3 [JPC-3]; first compound 6.325 µM,1.07
same,relative viability,PC-3 [JPC-3]; first compound 20 µM,0.935
same,relative viability,SK-LU-1; first compound 0.2 µM,1
same,relative viability,SK-LU-1; first compound 0.6325 µM,0.863
same,relative viability,SK-LU-1; first compound 2 µM,0.885
same,relative viability,SK-LU-1; first compound 6.325 µM,0.834
same,relative viability,SK-LU-1; first compound 20 µM,0.405

# From the supplement of paper PMC10307832
